According to patent US20080039483A1, “Novel Chelidonine Derivatives, Methods for the Production Thereof, and Use Thereof For Producing Pharmaceutical Agents” (priority 2003, published 2008):
Values after ≈ are worked out from the molar mass of the structure shown.

Assays:
[1] = test system: T47D (breast); assay: MTT cytotoxicity test, T47D; assay type: cell-based
[2] = test system: Colo205 (colon); assay: MTT cytotoxicity test, Colo205; assay type: cell-based
[3] = test system: Panc1 (pancreas); assay: MTT cytotoxicity test, Panc1; assay type: cell-based
[4] = test system: BxPC3 (pancreas); assay: MTT cytotoxicity test, BxPC3; assay type: cell-based
[5] = test system: U373MG (astrocyte); assay: MTT cytotoxicity test, U373MG; assay type: cell-based
[6] = test system: T47D, Colo205, Panc1, BxPC3, U373MG, SK-0V3; assay: MTT cytotoxicity test, activity compared to native chelidonine across the cell lines; assay type: cell-based; conditions: for activity compared to native chelidonine: overall, times higher than native chelidonine; for activity compared to native chelidonine, range: range of times higher than native chelidonine
[7] = test system: SK-0V3 (ovarian)

| Compound | IC50, MTT cytotoxicity test [1] [µg/mL] | IC50, MTT cytotoxicity test [2] [µg/mL] | IC50, MTT cytotoxicity test [3] [µg/mL] | IC50, MTT cytotoxicity test [4] [µg/mL] | IC50, MTT cytotoxicity test [5] [µg/mL] | activity compared to native chelidonine [6] | activity compared to native chelidonine, range [6] | IC50, MTT cytotoxicity test [7] [µg/mL] | IC50 ([1]; Homo sapiens) [µg/mL] | IC50 ([2]; Homo sapiens, COLO 205) [µg/mL] | IC50 ([3]; Homo sapiens, PANC-1) [µg/mL] | IC50 ([4]; Homo sapiens, BXPC-3) [µg/mL] | IC50 ([5]; Homo sapiens, U373 MG) [µg/mL] |
| --- | --- | --- | --- | --- | --- | --- | --- | --- | --- | --- | --- | --- | --- |
| COC(=O)CCC(=O)O[C@H]1Cc2cc3c(cc2[C@@H]2[C@H]1c1ccc4c(c1CN2C)OCO4)OCO3 [Chelidoninyl methyl succinate, Succinic Acid Chelidoninyl Methyl ester] | 0.02 | 0.0035 | 0.005 | <0.0035 | 4 | approximately 30 times | 50-150 times | 0.0035 | – | – | – | – | – |
| CN1Cc2c(ccc3c2OCO3)C2C(OC(=O)OC(Cl)(Cl)Cl)Cc3cc4c(cc3C21)OCO4 (centres unmarked) [Chelidoninyl trichloromethyl carbonate, Chelidoninyl Trichloromethyl Carbonate] | 0.2 (≈ 0.389 µM) | 0.5 (≈ 0.971 µM) | 0.25 (≈ 0.486 µM) | >8 | >8 | – | – | – | – | – | – | – | – |
| Chelidoninyl Trifluoroacetate [Chelidonine trifluoroacetate] | 0.02 | 0.045 | 0.06 | 0.03 | >4 | 5 times | 4-10 times | 0.06 | – | – | – | – | – |
| CN1Cc2c(ccc3c2OCO3)[C@@H]2[C@H]1c1cc3c(cc1C[C@@H]2O)OCO3 [Chelidonine] | – | – | – | – | – | – | – | – | 0.2 (≈ 0.566 µM) | 0.37 (≈ 1.05 µM) | 0.25 (≈ 0.707 µM) | > 8 | > 8 |
